Details: Cohort 5: 4.0 g/kg via 15-minutes IV infusion

For Br.CN1[C@@H]2C[C@@H](OC(=O)[C@H](CO)c3ccccc3)C[C@H]1[C@@H]1O[C@@H]12.O.O.O [scopolamine HBr, scopolamine hydrobromide trihydrate], the “Number of TEAEs” value was 25 AEs.

Source: US20250057853A1 (priority 2023, published 2025)
